Patent US20230077362A1 (CORTEVA AGRISCIENCE LLC, priority 2019, published 2023)
Read-outs that look alike come from different tables or passages of the source.

Columns and labels:
[1] = tested on: Beet Armyworm (Spodoptera exigua) ("BAW"), second instar larvae; experiment: Bioassay on beet armyworm (BAW), 128-well diet tray assay; format: in vivo; details: for pest or weed control at 50 µg/cm2: Spodoptera exigua; for BAW rating: Table ABC, species BAW, C = not tested, D = no activity noticed
Outline: (§1)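 After sealing with a clear self-adhesive lid, the trays are incubated at 25° C. with 14 h light and 10 h dark for 5 to 7 days; mortality in each well is recorded as a percentage and averaged across the eight wells.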

[2] = tested on: Cabbage Looper (Trichoplusia ni) ("CL"), second instar larvae; experiment: Bioassay on cabbage looper (CL), 128-well diet tray assay; format: in vivo; details: for pest or weed control at 50 µg/cm2: Trichoplusia ni; for CL rating: Table ABC, species CL, C = not tested, D = no activity noticed
Outline: as §1

[3] = read-out: BAW (Biological Results, rating)
[4] = read-out: CL (Biological Results, rating)

Row | SMILES | pest or weed control at 50 µg/cm2 [1, 3] [%] | pest or weed control at 50 µg/cm2 [2, 4] [%] | other results
1 | Cc1ccc(C(F)(F)F)c(N2C(=O)C(Cl)S/C2=N\C(=O)Nc2ccc(-c3ncn(-c4ccc(OC(F)(F)F)cc4)n3)cc2F)c1 (stereo not shown) [Compound J34, (Z)-1-(5-Chloro-3-(5-methyl-2-(trifluoromethyl)phenyl)-4-oxothiazolidin-2-ylidene)-3-(2-fluoro-4-(1-(4-(trifluoromethoxy)phenyl)-1H-1,2,4-triazol-3-yl)phenyl)urea] | 50 to 100 | 50 to 100 | 
2 | Cc1ccc(OCC(F)(F)F)c(N2C(=O)CS/C2=N\C(=O)Nc2ccc(-c3ncn(-c4cccc(OC(F)(F)F)c4)n3)cc2F)c1 [Compound J121, (Z)-1-(2-Fluoro-4-(1-(3-(trifluoromethoxy)phenyl)-1H-1,2,4-triazol-3-yl)phenyl)-3-(3-(5-methyl-2-(2,2,2-trifluoroethoxy)phenyl)-4-oxothiazolidin-2-ylidene)urea] | 0 to 50 | 50 to 100 | 
3 | CC(C)c1ccc(N(C)C)cc1N1C(=O)CS/C1=N\C(=O)Nc1c(F)cc(-c2ncn(-c3ccc(OC(F)(F)F)cc3)n2)cc1F [Compound J82, (Z)-1-(2,6-Difluoro-4-(1-(4-(trifluoromethoxy)phenyl)-1H-1,2,4-triazol-3-yl)phenyl)-3-(3-(5-(dimethylamino)-2-isopropylphenyl)-4-oxothiazolidin-2-ylidene)urea] | 50 to 100 | 50 to 100 | 
4 | COC(c1ccc(C)cc1N1C(=O)CS/C1=N\C(=O)Nc1ccc(-c2ncn(-c3ccc(C(F)(F)F)cn3)n2)cc1F)C(F)(F)F (stereo not shown) [Compound J377] |  |  | BAW rating [1]: A (50-100); CL rating [2]: A (50-100)
5 | COC(C)c1ccc(C)cc1N1C(=O)CS/C1=N\C(=O)Nc1ccc(-c2ncn(-c3ccc(OCC#N)cc3)n2)cc1C (stereo not shown) [Compound J358, (Z)-1-(4-(1-(4-(Cyanomethoxy)phenyl)-1H-1,2,4-triazol-3-yl)-2-methylphenyl)-3-(3-(2-(1-methoxyethyl)-5-methylphenyl)-4-oxothiazolidin-2-ylidene)urea] |  |  | pest or weed control at 50 µg/cm2 ([1]; read-out: BAW rating): 50 to 100%; pest or weed control at 50 µg/cm2 ([2]; read-out: CL rating): 50 to 100%
6 | Cc1ccc(C(C)C)c(N2C(=O)CS/C2=N\C(=O)Nc2ccc(-n3cnc(-c4ccc(OC(F)(F)F)cc4)n3)cc2Cl)c1 [Compound J728, (Z)-1-(2-Chloro-4-(3-(4-(trifluoromethoxy)phenyl)-1H-1,2,4-triazol-1-yl)phenyl)-3-(3-(2-isopropyl-5-methylphenyl)-4-oxothiazolidin-2-ylidene)urea] |  |  | pest or weed control at 50 µg/cm2 ([1]; read-out: BAW rating): 50 to 100%; pest or weed control at 50 µg/cm2 ([2]; read-out: CL rating): 50 to 100%
7 | Cc1ccc(C(C)C)c(N2C(=O)CS/C2=N\C(=O)Nc2ccc(-c3ncn(-c4ccc(C(F)(F)F)cc4)n3)c(C)c2)c1 [Compound J4, (Z)-1-(3-(2-Isopropyl-5-methylphenyl)-4-oxothiazolidin-2-ylidene)-3-(3-methyl-4-(1-(4-(trifluoromethyl)phenyl)-1H-1,2,4-triazol-3-yl)phenyl)urea] | 50 to 100 | 50 to 100 | 
8 | CCC(C)c1ccc(OC)cc1N1C(=O)CS/C1=N\C(=O)Nc1ccc(-c2ncn(-c3ccc(OC(F)(F)F)cc3)n2)cc1F (stereo not shown) [Compound J48, (Z)-1-(3-(2-(sec-Butyl)-5-methoxyphenyl)-4-oxothiazolidin-2-ylidene)-3-(2-fluoro-4-(1-(4-(trifluoromethoxy)phenyl)-1H-1,2,4-triazol-3-yl)phenyl)urea] | 50 to 100 | 50 to 100 | 
9 | CC(C)c1cc(F)c(N(C)C)cc1N1C(=O)CS/C1=N\C(=O)Nc1ccc(-c2ncn(-c3ccc(C(F)(F)F)cn3)n2)cc1F [Compound J352] |  |  | BAW (Biological Results, rating) ([1]; Beet Armyworm (Spodoptera exigua), C = Not Tested): A (50-100); CL (Biological Results, rating) ([2]; Cabbage Looper (Trichoplusia ni), C = Not Tested): A (50-100)
10 | COC(C)c1ccc(C)cc1N1C(=O)CS/C1=N\C(=O)Nc1c(F)cc(-c2ncn(-c3ccc(OC(F)(F)F)cc3)n2)cc1F (stereo not shown) [Compound J81, (Z)-1-(2,6-Difluoro-4-(1-(4-(trifluoromethoxy)phenyl)-1H-1,2,4-triazol-3-yl)phenyl)-3-(3-(2-(1-methoxyethyl)-5-methylphenyl)-4-oxothiazolidin-2-ylidene)urea] | 50 to 100 | 50 to 100 | 
11 | O=C(/N=C1\SCC(=O)N1c1cc(Cl)ccc1C(F)(F)F)Nc1ccc(-c2ncn(-c3ccc(OC(F)(F)F)cc3)n2)cc1Cl [Compound J42, (Z)-1-(3-(5-Chloro-2-(trifluoromethyl)phenyl)-4-oxothiazolidin-2-ylidene)-3-(2-chloro-4-(1-(4-(trifluoromethoxy)phenyl)-1H-1,2,4-triazol-3-yl)phenyl)urea] | 50 to 100 | 50 to 100 | 
12 | COc1cc(-c2ncn(-c3ccc(OC(F)(F)F)cc3)n2)ccc1NC(=O)/N=C1\SCC(=O)N1c1cc(N(C)C)ccc1C(C)C [Compound J89, (Z)-1-(3-(5-(Dimethylamino)-2-isopropylphenyl)-4-oxothiazolidin-2-ylidene)-3-(2-methoxy-4-(1-(4-(trifluoromethoxy)phenyl)-1H-1,2,4-triazol-3-yl)phenyl)urea] | 50 to 100 | 50 to 100 | 
13 | CC(C)c1ccc(N(C)C)cc1N1C(=O)CS/C1=N\C(=O)Nc1ccc(-c2ncn(-c3ccc(OC(F)(F)F)cn3)n2)cc1C(F)(F)F [Compound J275, (Z)-1-(3-(5-(Dimethylamino)-2-isopropylphenyl)-4-oxothiazolidin-2-ylidene)-3-(4-(1-(5-(trifluoromethoxy)pyridin-2-yl)-1H-1,2,4-triazol-3-yl)-2-(trifluoromethyl)phenyl)urea] | 50 to 100 | 50 to 100 | 
14 | COC(c1ccc(C)cc1N1C(=O)CS/C1=N\C(=O)Nc1ccc(-c2cn(-c3ccc(S(F)(F)(F)(F)F)cc3)cn2)cc1C)C(F)(F)F (stereo not shown) [Compound J617, (Z)-1-(3-(5-Methyl-2-(2,2,2-trifluoro-1-methoxyethyl)phenyl)-4-oxothiazolidin-2-ylidene)-3-(2-methyl-4-(1-(4-(pentafluoro-λ^6-sulfaneyl)phenyl)-1H-imidazol-4-yl)phenyl)urea] |  |  | pest or weed control at 50 µg/cm2 ([1]; read-out: BAW rating): 50 to 100%; pest or weed control at 50 µg/cm2 ([2]; read-out: CL rating): 50 to 100%
15 | CC(C)c1ccc(N(C)C)cc1N1C(=O)CS/C1=N\C(=O)Nc1ccc(-c2ncn(-c3ccc(S(F)(F)(F)(F)F)cc3)n2)cc1F [Compound J450] |  |  | BAW rating [1]: A (50-100); CL rating [2]: A (50-100)
16 | COc1ccc(C(C)C)c(N2C(=O)CS/C2=N\C(=O)Nc2ccc(-c3ncn(-c4ccc(C(F)(F)F)cc4)n3)c(C)c2)c1 [Compound J5, (Z)-1-(3-(2-Isopropyl-5-methoxyphenyl)-4-oxothiazolidin-2-ylidene)-3-(3-methyl-4-(1-(4-(trifluoromethyl)phenyl)-1H-1,2,4-triazol-3-yl)phenyl)urea] | 50 to 100 | 50 to 100 | 
17 | O=C(/N=C1\SCC(=O)N1c1ccccc1COCC(F)(F)F)Nc1ccc(-n2cnc(-c3ccc(OC(F)(F)F)cc3)n2)cc1Cl [Compound J732, (Z)-1-(2-Chloro-4-(3-(4-(trifluoromethoxy)phenyl)-1H-1,2,4-triazol-1-yl)phenyl)-3-(4-oxo-3-(2-((2,2,2-trifluoroethoxy)methyl)phenyl)thiazolidin-2-ylidene)urea] |  |  | pest or weed control at 50 µg/cm2 ([1]; read-out: BAW rating): 50 to 100%; pest or weed control at 50 µg/cm2 ([2]; read-out: CL rating): 50 to 100%
